These results are taken from ChEMBL document CHEMBL1144176, “Synthesis and biological evaluation of indolyl bisphosphonates as anti-bone resorptive and anti-leishmanial agents” (Bioorg Med Chem, 2008).

As a reminder, the inhibition is the change of the read-out against control, counted positive when it falls. One may read the IC50 as the concentration at which inhibition is half-maximal. A word on the CC50: it is the concentration that lowers cell viability or growth by half.

Data set [1] in a line: Cytotoxicity against Sprague-Dawley rat calvarial osteoblast cells at 10 pM to 1 uM after 48 hrs by MTT assay. The format is cell-based. A general note: Formazan colour is commonly taken as a measure of viable cells.
The subject of data set [2] is Leishmania donovani. Put plainly: Antileishmanial activity against Leishmania donovani MHOM/IN/80/Dd8 promastigotes infected in mouse J774A1 cells at 10 ug/mL after 96 hrs by MTT assay relative to control. The format is functional. The note with it: for inhibition at 10 µg/mL: MHOM/IN/80/Dd8, J774.A1, 96 h; for Activity: J774.A1.
In data set [3] the test system is Leishmania donovani. Put plainly: Antileishmanial activity against Leishmania donovani MHOM/IN/80/Dd8 amastigotes infected in mouse J774A1 cells at 10 ug/mL after 72 hrs by MTT assay relative to control. The note with it: for Activity: J774.A1; for inhibition at 10 µg/mL: MHOM/IN/80/Dd8, J774.A1, 72 h. The format is functional.
Data set [4] relates to Leishmania donovani. In words: Antileishmanial activity against Leishmania donovani MHOM/IN/80/Dd8 promastigotes infected in mouse J774A1 cells at 6.25 ug/mL after 96 hrs by MTT assay relative to control. The data set is classed as functional. The following applies: MHOM/IN/80/Dd8, J774.A1, 96 h.
Data set [5] relates to Leishmania donovani. Put plainly: Antileishmanial activity against Leishmania donovani MHOM/IN/80/Dd8 amastigotes infected in mouse J774A1 cells after 72 hrs by MTT assay. The format is functional, organism-based. The note with it: MHOM/IN/80/Dd8, J774.A1, 72 h.
A short description of data set [6]: Cytotoxicity against mouse J774A1 cells after 72 hrs by MTT assay. The format is cell-based, J774.A1.
In data set [7] the test system is Leishmania donovani. Put plainly: Antileishmanial activity against Leishmania donovani MHOM/IN/80/Dd8 amastigotes infected in mouse J774A1 cells at 1 ug/mL after 72 hrs by MTT assay relative to control. The note with it: MHOM/IN/80/Dd8, J774.A1, 72 h. The format is functional.
The test system of data set [8] is Leishmania donovani. In words: Antileishmanial activity against Leishmania donovani MHOM/IN/80/Dd8 amastigotes infected in mouse J774A1 cells at 2 ug/mL after 72 hrs by MTT assay relative to control. The format is functional. The note with it: MHOM/IN/80/Dd8, J774.A1, 72 h.
For data set [9], the system named is Leishmania donovani. In words: Antileishmanial activity against Leishmania donovani MHOM/IN/80/Dd8 amastigotes infected in mouse J774A1 cells at 5 ug/mL after 72 hrs by MTT assay relative to control. The format is functional. The following applies: MHOM/IN/80/Dd8, J774.A1, 72 h.
For data set [10], the system named is Bone marrow cell. Put plainly: Antibone resorptive activity in mouse bone marrow cells assessed as inhibition of osteoclastogenesis at 100 nM after 7 days by TRAP assay in presence of MCSF and RANKL. The format is functional, cell-based.
In data set [11] the test system is Leishmania donovani. Put plainly: Antileishmanial activity against Leishmania donovani MHOM/IN/80/Dd8 amastigotes infected in mouse J774A1 cells at 200 ug/mL after 72 hrs by MTT assay relative to control. The data set is classed as functional, organism-based. The note with it: J774.A1.
The test system of data set [12] is Leishmania donovani. Put plainly: Antileishmanial activity against Leishmania donovani MHOM/IN/80/Dd8 amastigotes infected in mouse J774A1 cells at 100 ug/mL after 72 hrs by MTT assay relative to control. The data set is classed as functional, organism-based. The note with it: J774.A1.
The test system of data set [13] is Leishmania donovani. In words: Antileishmanial activity against Leishmania donovani MHOM/IN/80/Dd8 amastigotes infected in mouse J774A1 cells at 25 ug/mL after 72 hrs by MTT assay relative to control. The note with it: J774.A1. The format is functional, organism-based.
Data set [14] concerns Leishmania donovani. In words: Antileishmanial activity against Leishmania donovani MHOM/IN/80/Dd8 promastigotes infected in mouse J774A1 cells at 1000 ug/mL after 96 hrs by MTT assay relative to control. The note with it: J774.A1. The format is functional, organism-based.
The test system of data set [15] is Leishmania donovani. In words: Antileishmanial activity against Leishmania donovani MHOM/IN/80/Dd8 promastigotes infected in mouse J774A1 cells at 2000 ug/mL after 96 hrs by MTT assay relative to control. The format is functional, organism-based. The note with it: J774.A1.
Data set [16] deals with Leishmania donovani. In words: Antileishmanial activity against Leishmania donovani MHOM/IN/80/Dd8 amastigotes infected in mouse J774A1 cells at 50 ug/mL after 72 hrs by MTT assay relative to control. The data set is classed as functional, organism-based. The note with it: J774.A1.
Data set [17] deals with Leishmania donovani. Put plainly: Antileishmanial activity against Leishmania donovani MHOM/IN/80/Dd8 promastigotes infected in mouse J774A1 cells at 500 ug/mL after 96 hrs by MTT assay relative to control. The following applies: J774.A1. The format is functional, organism-based.
Data set [18] deals with Mus musculus. Put plainly: Antibone resorptive activity in BALB/c ovariectomized mouse bone marrow cells assessed as inhibition of osteoclastogenesis at 10 mg/kg by TRAP assay relative to control in presence of MCSF and RANKL. Further details: scale not given: the % may be the effect or the level left. The data set is classed as functional.
The subject of data set [19] is Osteoclast. In words: Induction of apoptosis in mouse osteoclast cells assessed as nucleosomal DNA fragmentation at 100 nM after 48 hrs by Hoechst 33258 staining. The data set is classed as functional, cell-based.
Data set [20] relates to Mus musculus. In words: Induction of osteoclastogenesis in BALB/c ovariectomized mouse bone marrow cells at 10 mg/kg by TRAP assay relative to sham group in presence of MCSF and RANKL. The data set is classed as functional.
Data set [21] deals with Bone marrow cell. Put plainly: Antibone resorptive activity in mouse bone marrow cells assessed as inhibition of osteoclastogenesis at 100 pM after 7 days by TRAP assay in presence of MCSF and RANKL. The format is functional, cell-based.
Data set [22] relates to Bone marrow cell. Put plainly: Antibone resorptive activity in mouse bone marrow cells assessed as inhibition of osteoclastogenesis at 10 pM after 7 days by TRAP assay in presence of MCSF and RANKL. The format is functional, cell-based.
The test system of data set [23] is Osteoclast. Put plainly: Induction of apoptosis in mouse osteoclast cells assessed as nucleosomal DNA fragmentation at 10 pM after 48 hrs by Hoechst 33258 staining. The data set is classed as functional, cell-based.

≈ marks a conversion by molar mass, not a printed value. Calls of active or inactive are those of the source. The calls are words filed in the database; no cut-off is given here.

`CCOP(=O)(OCC)C(O)(CCCCCn1c2c(c3ccccc31)CCCc1ccccc1-2)P(=O)(OCC)OCC`: the Activity result in [1] was “Not Active”; in the data set on Leishmania donovani [3], “Toxic”. Also, at 10 µg/mL the inhibition in the data set on Leishmania donovani [2] was 85.7%. In the data set with Leishmania donovani [4], this molecule showed an inhibition at 6.25 µg/mL of 26.1%.
`CCOP(=O)(OCC)C(O)(CCCCn1c2c(c3ccccc31)CCCc1ccccc1-2)P(=O)(OCC)OCC` registered an IC50 in the data set with Leishmania donovani [5] of 24 µg/mL (≈ 40.6 µM). Also, the CC50 at 72 h in data set [6] was 5.81 µg/mL (≈ 9.82 µM). Besides, the Activity result in data set [1] is given as “Not Active”. Also, the inhibition at 10 µg/mL in the data set with Leishmania donovani [2] came to 99.8%. Also, in the data set with Leishmania donovani [7], the inhibition at 1 µg/mL is 3%. In the data set on Leishmania donovani [8], this molecule came in with an inhibition at 2 µg/mL of 80.6%. The same molecule gave an inhibition at 6.25 µg/mL with Leishmania donovani [4] of 86.4%. Moreover, in the data set on Leishmania donovani [9], the inhibition at 5 µg/mL came out at 78.3%. Also, the result in the data set with Bone marrow cell [10] was Active.
In the case of Sodium Stibogluconate, the inhibition with Leishmania donovani [11] worked out at 99.8%; in the data set with Leishmania donovani [12], 78.8%; with Leishmania donovani [13] it was 11.4%; with Leishmania donovani [14], 55.5%; in the data set with Leishmania donovani [15] it was 72.8%; in the data set with Leishmania donovani [16], 48.4%. Further, the inhibition with Leishmania donovani [17] was determined as 29.1%.
`O=P([O-])([O-])C(O)(CCn1c2c(c3ccccc31)CCSc1ccccc1-2)P(=O)([O-])[O-].[Na+].[Na+].[Na+].[Na+]`: in [1], the outcome was Active. This molecule also showed an inhibition at 10 µg/mL in the data set with Leishmania donovani [2] of 23.5%. Moreover, the result in the data set on Leishmania donovani [3] was inactive.
For the molecule `CCOP(=O)(OCC)C(O)(CCCCCCn1c2c(c3ccccc31)CCSc1ccccc1-2)P(=O)(OCC)OCC`, it took 2.56 µg/mL (≈ 4.01 µM) to reach half-maximal inhibition with Leishmania donovani [5] (IC50). Further, the CC50 at 72 h in data set [6] turned out to be 4.5 µg/mL (≈ 7.06 µM). For the same molecule, the Activity result in data set [1] is reported as “Not Active”. Besides, the figures for the inhibition at 10 µg/mL with Leishmania donovani [2] and with Leishmania donovani [3] were 100% and 85%, respectively. In the data set on Leishmania donovani [7], this molecule gave an inhibition at 1 µg/mL of 25.5%. This molecule displayed an inhibition at 2 µg/mL with Leishmania donovani [8] of 40%. This molecule also came in with an inhibition at 6.25 µg/mL in the data set with Leishmania donovani [4] of 90.1%. Further, in the data set with Leishmania donovani [9], at 5 µg/mL the inhibition was 67.2%. In addition, in the data set on Bone marrow cell [10], the result was Active.
For `CCOP(=O)(OCC)C(O)(CCCCCn1c2c(c3ccccc31)CCSc1ccccc1-2)P(=O)(OCC)OCC`, the concentration for half-maximal inhibition (IC50) in the data set with Leishmania donovani [5] was 1.69 µg/mL (≈ 2.71 µM). Moreover, the CC50 at 72 h in data set [6] is 3.66 µg/mL (≈ 5.87 µM). In addition, the Activity entry was “Not Active” in data set [1], 9% with Mus musculus [18] and 40% with Mus musculus [20]. Moreover, the inhibition at 10 µg/mL was 100% in the data set on Leishmania donovani [2] and 78.2% with Leishmania donovani [3]. In the data set with Leishmania donovani [7], this molecule showed an inhibition at 1 µg/mL of 4.2%. The outcome with Osteoclast [19] and with Bone marrow cell [21] was Active. In the data set on Leishmania donovani [8], testing at 2 µg/mL gave an inhibition of 16.8%. This molecule yielded an inhibition at 6.25 µg/mL in the data set with Leishmania donovani [4] of 99.6%. Further, 5 µg/mL produced 58.8% inhibition in the data set with Leishmania donovani [9]. In addition, the outcome in the data set with Bone marrow cell [10] was inactive.
With `CCOP(=O)(OCC)C(O)(CCCCn1c2c(c3ccccc31)CCOc1ccccc1-2)P(=O)(OCC)OCC`, in [1], the result was Active. Further, in the data set on Leishmania donovani [2], the inhibition at 10 µg/mL stood at 39.4%. In addition, the result in the data set on Leishmania donovani [3] was inactive.
Turning to `CCOP(=O)(OCC)C(O)(CCCCn1c2c(c3ccccc31)CCSc1ccccc1-2)P(=O)(OCC)OCC`, the result in the data set on Bone marrow cell [22], with Bone marrow cell [21] and in the data set with Osteoclast [23] was Active. The results for the Activity result (in [1]; in the data set with Mus musculus [18]; in the data set on Mus musculus [20]) were “Not Active”, 8.4% and 40%, respectively. Besides, the inhibition at 10 µg/mL in the data set with Leishmania donovani [2] amounted to 27.8%; in the data set with Leishmania donovani [3], 9.45%. The outcome in the data set with Bone marrow cell [10] was inactive.
Take `O=P([O-])([O-])C(O)(Cn1c2c(c3ccccc31)CCSc1ccccc1-2)P(=O)([O-])[O-].[Na+].[Na+].[Na+].[Na+]`: in data set [1], the result was Active. Moreover, in the data set with Leishmania donovani [2], the outcome was inactive. This molecule gave an inhibition at 10 µg/mL with Leishmania donovani [3] of 33.5%.
In the case of `O=P([O-])([O-])C(O)(CCCCn1c2c(c3ccccc31)CCSc1ccccc1-2)P(=O)([O-])[O-].[Na+].[Na+].[Na+].[Na+]`, in data set [1], the Activity entry is listed as “Not Active”. For the same molecule, in the data set on Leishmania donovani [2], the result was inactive. Testing at 10 µg/mL with Leishmania donovani [3] gave an inhibition of 55.3%. Besides, the result with Bone marrow cell [10] was Active.
Take `O=P([O-])([O-])C(O)(CCCn1c2c(c3ccccc31)CCSc1ccccc1-2)P(=O)([O-])[O-].[Na+].[Na+].[Na+].[Na+]`: the outcome in data set [1] was Active. Further, in the data set on Leishmania donovani [2], the result was inactive. The same molecule displayed an inhibition at 10 µg/mL with Leishmania donovani [3] of 6.3%.
`NCCCC(O)(P(=O)(O)O)P(=O)(O)O`: in the data set on Bone marrow cell [10], the result was Active.
